Laboratory results taken from EP4722201A1, “3-PHENYLISOXAZOLINE-5-CARBOXAMIDE COMPOUND, AND PREPARATION METHOD THEREFOR, HERBICIDAL COMPOSITION THEREOF AND USE THEREOF” (Jiangsu Flag Chemical Industry Co., Ltd, priority 2023, dated 2024).

Columns and labels:
Assay type in all cases: in vivo
[1] = system: Cyperus iria; test: Indoor herbicide activity determination, post-emergence (stem and leaf spray at 2-4 leaf stage); settings: 504 h, determined 21 days later, read-out: Inhibition rate of fresh weight, Cyperus iria; for inhibition at 60 g/ha: 60 g a.i./ha; for inhibition at 30 g/ha: 30 g a.i./ha
Text: (§1) The testing method for herbicide activity of the compound of the present invention was as follows:
(§2) Post-emergence: an appropriate quantity of seeds of gramineous weeds (Echinochloa crusgalli, Eleusine indica, Digitaria sanguinalis, Alopecurus japonicus, Beckmannia syzigachne, Leptochloa chinensis, Polypogon fugax, Alopecurus aequalis, Lolium multiflorum, Poa annua, Aegilops tauschii, Avena fatua, Alopecurus myosuroides, Alopecurus japonicus and Alopecurus aequalis), broad-leaved weeds (Eclipta prostrata, Amaranthus retroflexus, Rorippa indica, Malachium aquaticum, Veronica polita, Conyza canadensis, Sesbania cannabina, Sagittariatrifolia and Schoenoplectiella juncoides), and Cyperus iria were sown in plastic pots having a diameter of 7 cm and holes at the bottom and filled with nutrient soil (sandy soil, pH 6.1, organic matter 1%) respectively, the seeds were covered with an appropriate amount of soil after being sown, then the soil was wetted with water from the bottom, the seeds were cultured in a constant-temperature illuminated culture room until a 2-4 leaf stage, and stems and leaves underwent spray treatment. After the treatment, the test materials were placed in a laboratory and cultured in the constant-temperature illuminated culture room after the liquid was naturally dry in the shade, and results were determined 21 days later. Inhibition rate of fresh weight % = (1−(fresh weight of treated plants)/(fresh weight of control plants)) × 100% [formula]

[2] = system: Digitaria sanguinalis; test: as above; settings: 504 h, determined 21 days later, read-out: Inhibition rate of fresh weight, Digitaria sanguinalis; for inhibition at 60 g/ha: 60 g a.i./ha; for inhibition at 30 g/ha: 30 g a.i./ha
Text: as §1, §2

[3] = system: Eclipta prostrata; test: as above; settings: 504 h, determined 21 days later, read-out: Inhibition rate of fresh weight, Eclipta prostrata; for inhibition at 60 g/ha: 60 g a.i./ha; for inhibition at 30 g/ha: 30 g a.i./ha
Text: as §1, §2

[4] = system: Alopecurus japonicus; test: Indoor herbicide activity determination, Seed Treatment; pre-emergence (soil spray); settings: for Herbicidal activities, Alopecurus japonicus (inhibition rate class): Dosage 240 g a.i./ha; for Herbicidal activity (inhibition rate class), Alopecurus japonicus: Dosage 120 g a.i./ha
In short: (§3)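 Weed seeds were sown in 7 cm pots of sandy nutrient soil (pH 6.1, 1% organic matter), covered, bottom-watered and held 24 h in a constant-temperature illuminated room before the soil surface was sprayed in a traveling spray tower. Fresh-weight inhibition versus untreated plants was scored 21 days later.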

[5] = system: Alopecurus myosuroides; test: as above; settings: for Herbicidal activities, Alopecurus myosuroides (inhibition rate class): Dosage 240 g a.i./ha; for Herbicidal activity (inhibition rate class), Alopecurus myosuroides: Dosage 120 g a.i./ha
In short: as §3

[6] = system: Eleusine indica; test: as above; settings: for Herbicidal activities, Eleusine indica (inhibition rate class): Dosage 240 g a.i./ha; for Herbicidal activity (inhibition rate class), Eleusine indica: Dosage 120 g a.i./ha
In short: as §3

[7] = system: Leptochloa chinensis; test: as above; settings: for Herbicidal activities, Leptochloa chinensis (inhibition rate class): Dosage 240 g a.i./ha; for Herbicidal activity (inhibition rate class), Leptochloa chinensis: Dosage 120 g a.i./ha
In short: as §3

[8] = system: Lolium multiflorum; test: as above; settings: for Herbicidal activities, Lolium multiflorum (inhibition rate class): Dosage 240 g a.i./ha; for Herbicidal activity (inhibition rate class), Lolium multiflorum: Dosage 120 g a.i./ha
In short: as §3

[9] = system: Aegilops tauschii; test: as above; settings: 60 g a.i./ha, read-out: Herbicidal activities (inhibition rate) Aegilops tauschii
In short: as §3

[10] = system: Cyperus iria; test: as above; settings: 60 g a.i./ha, read-out: Herbicidal activities (inhibition rate) Cyperus iria
In short: as §3

[11] = system: Digitaria sanguinalis; test: as above; settings: 60 g a.i./ha, read-out: Herbicidal activities (inhibition rate) Digitaria sanguinalis
In short: as §3

[12] = system: Eclipta prostrata; test: as above; settings: 60 g a.i./ha, read-out: Herbicidal activities (inhibition rate) Eclipta prostrata
In short: as §3

SMILES | inhibition at 60 g/ha [1] | inhibition at 60 g/ha [2] | inhibition at 60 g/ha [3] | Herbicidal activities, Alopecurus japonicus (inhibition rate class) [4] | Herbicidal activities, Alopecurus myosuroides (inhibition rate class) [5] | Herbicidal activities, Eleusine indica (inhibition rate class) [6] | Herbicidal activities, Leptochloa chinensis (inhibition rate class) [7] | Herbicidal activities, Lolium multiflorum (inhibition rate class) [8] | inhibition at 30 g/ha [1] | inhibition at 30 g/ha [2] | inhibition at 30 g/ha [3] | inhibition at 60 g/ha [9] | Herbicidal activity (inhibition rate class), Alopecurus japonicus [4] | inhibition at 60 g/ha [10] | inhibition at 60 g/ha [11] | inhibition at 60 g/ha [12] | Herbicidal activity (inhibition rate class), Eleusine indica [6] | Herbicidal activity (inhibition rate class), Leptochloa chinensis [7] | Herbicidal activity (inhibition rate class), Alopecurus myosuroides [5] | Herbicidal activity (inhibition rate class), Lolium multiflorum [8]
C=CC1(C(=O)N[C@H]2C[C@@H](C(=O)O)C2)CC(c2cc(F)cc(Cl)c2)=NO1 (mixture of isomers) [I-27] | 80 to 100% | 80 to 100% | 40 to 60% | A (A indicates that the inhibition rate was greater than or equal to 80% to 100%) | A (A indicates that the inhibition rate was greater than or equal to 80% to 100%) | A (A indicates that the inhibition rate was greater than or equal to 80% to 100%) | A (A indicates that the inhibition rate was greater than or equal to 80% to 100%) | A (A indicates that the inhibition rate was greater than or equal to 80% to 100%) | – | – | – | – | – | – | – | – | – | – | – | –
C=CC1(C(=O)N[C@H]2C[C@@H](C(=O)OC)C2)CC(c2cc(F)cc(Cl)c2)=NO1 (mixture of isomers) [I-29] | 80 to 100% | 80 to 100% | 40 to 60% | A (A indicates that the inhibition rate was greater than or equal to 80% to 100%) | A (A indicates that the inhibition rate was greater than or equal to 80% to 100%) | A (A indicates that the inhibition rate was greater than or equal to 80% to 100%) | A (A indicates that the inhibition rate was greater than or equal to 80% to 100%) | A (A indicates that the inhibition rate was greater than or equal to 80% to 100%) | – | – | – | – | – | – | – | – | – | – | – | –
C=CC1(C(=O)N[C@H]2C[C@@H](C(=O)OC)C2)CC(c2cc(Cl)cc(C(F)(F)F)c2)=NO1 (mixture of isomers) [I-55] | 80 to 100% | 60 to 80% | 60 to 80% | A (A indicates that the inhibition rate was greater than or equal to 80% to 100%) | A (A indicates that the inhibition rate was greater than or equal to 80% to 100%) | – | A (A indicates that the inhibition rate was greater than or equal to 80% to 100%) | A (A indicates that the inhibition rate was greater than or equal to 80% to 100%) | – | – | – | – | – | – | – | – | – | – | – | –
COC(=O)[C@H]1C[C@@H](NC(=O)C2(C(F)(F)F)CC(c3cc(Cl)cc(C(F)(F)F)c3)=NO2)C1 (relative stereo) [I-247] | 80 to 100% | 80 to 100% | 60 to 80% | A (A indicates that the inhibition rate was greater than or equal to 80% to 100%) | A (A indicates that the inhibition rate was greater than or equal to 80% to 100%) | – | A (A indicates that the inhibition rate was greater than or equal to 80% to 100%) | A (A indicates that the inhibition rate was greater than or equal to 80% to 100%) | – | – | – | – | – | – | – | – | – | – | – | –
COC(=O)[C@H]1C[C@@H](NC(=O)C2(CF)CC(c3cc(F)cc(F)c3)=NO2)C1 (relative stereo) [I-310] | 80 to 100% | 80 to 100% | 60 to 80% | A (A indicates that the inhibition rate was greater than or equal to 80% to 100%) | A (A indicates that the inhibition rate was greater than or equal to 80% to 100%) | – | A (A indicates that the inhibition rate was greater than or equal to 80% to 100%) | A (A indicates that the inhibition rate was greater than or equal to 80% to 100%) | – | – | – | – | – | – | – | – | – | – | – | –
C=C[C@]1(C(=O)N[C@H]2C=C[C@@H](C(=O)O)C2)CC(c2cc(F)cc(F)c2)=NO1 [CK1, reference compound] | – | – | – | – | – | – | – | – | 60 to 80% | 60 to 80% | < 20% | – | – | – | – | – | – | – | – | –
C=C[C@]1(C(=O)N[C@H]2C=C[C@@H](C(=O)OC)C2)CC(c2cc(F)cc(F)c2)=NO1 [CK2, reference compound] | – | – | – | – | – | – | – | – | 60 to 80% | 60 to 80% | 20 to 40% | – | – | – | – | – | – | – | – | –
C=C[C@]1(C(=O)N[C@H]2C=C[C@@H](C(=O)OC)C2)CC(c2cc(Cl)cc(C(F)(F)F)c2)=NO1 [I-477] | – | – | – | – | – | – | – | – | 80 to 100% | 60 to 80% | – | 80 to 100% | B (B indicates that the inhibition rate was greater than or equal to 60% to less than 80%) | 60 to 80% | 60 to 80% | 40 to 60% | A (A indicates that the inhibition rate was greater than or equal to 80% to 100%) | A (A indicates that the inhibition rate was greater than or equal to 80% to 100%) | – | –
O=C(O)[C@@H]1C=C[C@H](NC(=O)[C@@]2(C(F)(F)F)CC(c3cc(F)cc(C(F)(F)F)c3)=NO2)C1 [I-516] | – | – | – | – | – | – | – | – | – | – | – | 80 to 100% | A (A indicates that the inhibition rate was greater than or equal to 80% to 100%) | 80 to 100% | 80 to 100% | 60 to 80% | A (A indicates that the inhibition rate was greater than or equal to 80% to 100%) | A (A indicates that the inhibition rate was greater than or equal to 80% to 100%) | A (A indicates that the inhibition rate was greater than or equal to 80% to 100%) | A (A indicates that the inhibition rate was greater than or equal to 80% to 100%)
C#C[C@@H](C)OC(=O)[C@@H]1C=C[C@H](NC(=O)[C@@]2(C(F)(F)F)CC(c3cc(F)cc(C(F)(F)F)c3)=NO2)C1 [I-521] | – | – | – | – | – | – | – | – | – | – | – | 80 to 100% | A (A indicates that the inhibition rate was greater than or equal to 80% to 100%) | 80 to 100% | 80 to 100% | 80 to 100% | A (A indicates that the inhibition rate was greater than or equal to 80% to 100%) | A (A indicates that the inhibition rate was greater than or equal to 80% to 100%) | A (A indicates that the inhibition rate was greater than or equal to 80% to 100%) | A (A indicates that the inhibition rate was greater than or equal to 80% to 100%)
